What is called IC50 is the point on the concentration scale where inhibition reaches its midpoint. In general, half-life refers to the time in which the quantity being followed falls by half.

In series [1] the target is Dual specificity calcium/calmodulin-dependent 3',5'-cyclic nucleotide phosphodiesterase 1C (Homo sapiens, UniProt Q14123). The experiment in a line: Inhibition of PDE1C (147 to 531 residues) (unknown origin) using 3H-cGMP as substrate incubated for 15 mins by liquid scintillation counter analysis.
Dual specificity calcium/calmodulin-dependent 3',5'-cyclic nucleotide phosphodiesterase 1C, sequence (Q14123 whole entry, the tested form may be a part): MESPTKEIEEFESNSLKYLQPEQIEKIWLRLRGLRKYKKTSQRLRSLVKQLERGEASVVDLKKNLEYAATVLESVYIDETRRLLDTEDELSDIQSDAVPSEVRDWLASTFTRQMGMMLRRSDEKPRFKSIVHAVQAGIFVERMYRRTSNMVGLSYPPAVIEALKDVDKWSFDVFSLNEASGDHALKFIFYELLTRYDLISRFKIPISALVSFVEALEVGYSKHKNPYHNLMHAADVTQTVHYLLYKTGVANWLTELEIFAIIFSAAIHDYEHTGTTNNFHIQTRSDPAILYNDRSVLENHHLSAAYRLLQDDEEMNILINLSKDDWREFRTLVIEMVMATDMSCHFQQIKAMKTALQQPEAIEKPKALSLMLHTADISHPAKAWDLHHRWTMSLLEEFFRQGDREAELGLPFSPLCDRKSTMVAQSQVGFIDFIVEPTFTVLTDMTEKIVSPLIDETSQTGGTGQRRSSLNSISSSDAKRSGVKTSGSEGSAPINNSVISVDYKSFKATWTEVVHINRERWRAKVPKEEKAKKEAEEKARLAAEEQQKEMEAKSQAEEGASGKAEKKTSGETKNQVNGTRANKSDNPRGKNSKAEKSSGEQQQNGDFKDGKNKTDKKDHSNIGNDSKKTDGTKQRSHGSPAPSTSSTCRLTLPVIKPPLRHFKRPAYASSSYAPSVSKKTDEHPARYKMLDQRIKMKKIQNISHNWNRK
For series [2], the target named is High affinity cGMP-specific 3',5'-cyclic phosphodiesterase 9A (Homo sapiens, UniProt O76083). Put plainly: Inhibition of PDE9A (181 to 506 residues) (unknown origin) using 3H-cGMP as substrate incubated for 15 mins by liquid scintillation counter analysis.
High affinity cGMP-specific 3',5'-cyclic phosphodiesterase 9A, sequence (O76083 whole entry, the tested form may be a part): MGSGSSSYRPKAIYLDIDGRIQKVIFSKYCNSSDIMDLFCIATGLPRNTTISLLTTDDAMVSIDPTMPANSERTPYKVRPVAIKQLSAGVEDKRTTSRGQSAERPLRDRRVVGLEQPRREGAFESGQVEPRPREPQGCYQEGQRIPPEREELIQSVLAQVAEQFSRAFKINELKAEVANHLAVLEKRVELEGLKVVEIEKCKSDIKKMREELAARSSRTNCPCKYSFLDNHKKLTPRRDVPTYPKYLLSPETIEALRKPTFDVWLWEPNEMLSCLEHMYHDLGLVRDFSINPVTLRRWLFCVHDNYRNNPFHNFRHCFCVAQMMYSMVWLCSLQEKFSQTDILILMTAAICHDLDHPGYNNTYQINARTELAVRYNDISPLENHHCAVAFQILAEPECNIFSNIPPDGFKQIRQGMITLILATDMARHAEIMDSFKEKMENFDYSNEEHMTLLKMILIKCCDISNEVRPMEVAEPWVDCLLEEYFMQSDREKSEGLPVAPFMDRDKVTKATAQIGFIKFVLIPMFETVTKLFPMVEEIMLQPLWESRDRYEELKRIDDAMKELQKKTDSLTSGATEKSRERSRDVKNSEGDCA
Series [3] concerns Mus musculus. The experiment in a line: Anti-inflammatory bowel disease activity in DSS-induced inflammatory bowel disease C57BL/6 mouse model assessed as decrease in diarrhoea by measuring disease activity index score at 25 mg/kg,ip BID for 7 days. The settings on record: time 7.0 day. It counts as functional, organism-based.
The subject of series [4] is Mus musculus. Put plainly: Anti-inflammatory bowel disease activity in DSS-induced inflammatory bowel disease C57BL/6 mouse model assessed as decrease in fecal occult blood by measuring disease activity index score at 25 mg/kg,ip BID for 7 days by Hemo-occult test. The format is functional, organism-based. Conditions: time 7.0 day.
In series [5] the test system is Mus musculus. Put plainly: Anti-inflammatory bowel disease activity in DSS-induced inflammatory bowel disease C57BL/6 mouse model assessed as decrease in body weight loss by measuring disease activity index score at 25 mg/kg,ip BID for 7 days. It counts as functional, organism-based. The settings on record: time 7.0 day.
Series [6] relates to Mus musculus. The experiment in a line: Anti-inflammatory bowel disease activity in DSS-induced inflammatory bowel disease C57BL/6 mouse model assessed as increase in colon length at 25 mg/kg,ip BID for 7 days by vernier calipers analysis. The format is functional, organism-based. The settings on record: time 7.0 day.
A short description of series [7]: Toxicity in DSS-induced inflammatory bowel disease C57BL/6 mouse model assessed as body weight change at 25 mg/kg,ip BID for 7 days. Conditions: in vivo, 168 h, time 7 day. It counts as organism-based.
Series [8] concerns RAW264.7. The experiment in a line: Anti-inflammatory activity in mouse RAW264.7 cells assessed as reduction in LPS-induced IL-1alpha mRNA expression at 5 to 10 uM incubated for 24 hrs by qPCR analysis. The format is functional, cell-based. Conditions: dose 5-10 µM.
The test system of series [9] is RAW264.7. The experiment in a line: Anti-inflammatory activity in mouse RAW264.7 cells assessed as reduction in LPS-induced IL-6 mRNA expression at 5 to 10 uM incubated for 24 hrs by qPCR analysis. It counts as functional, cell-based. The settings on record: dose 5-10 µM. (Quantitative PCR measures a nucleic acid by following its amplification.)
The target in series [10] is cGMP-specific 3',5'-cyclic phosphodiesterase (Homo sapiens, UniProt O76074). Put plainly: Inhibition of PDE5A1 (535 to 860 residues) (unknown origin) using 3H-cGMP as substrate incubated for 15 mins by liquid scintillation counter analysis.
Series [11] concerns Mus musculus. The experiment in a line: Anti-inflammatory bowel disease activity in DSS-induced inflammatory bowel disease C57BL/6 mouse model assessed as decrease in diarrhoea by measuring disease activity index score at 5 mg/kg,ip BID for 7 days. The format is functional, organism-based. Conditions: time 7.0 day.
Series [12] concerns the target High affinity cAMP-specific and IBMX-insensitive 3',5'-cyclic phosphodiesterase 8A (Homo sapiens, UniProt O60658). The experiment in a line: Inhibition of PDE8A (480 to 820 residues) (unknown origin) using 3H-cAMP as substrate incubated for 15 mins by liquid scintillation counter analysis.
Series [13] deals with Mus musculus. Put plainly: Anti-inflammatory bowel disease activity in DSS-induced inflammatory bowel disease C57BL/6 mouse model assessed as decrease in body weight loss by measuring disease activity index score at 5 mg/kg,ip BID for 7 days. It counts as functional, organism-based. The settings on record: time 7.0 day.
For series [14], the system named is Mus musculus. The experiment in a line: Anti-inflammatory bowel disease activity in DSS-induced inflammatory bowel disease C57BL/6 mouse model assessed as protection of colon crypt structures at 5 mg/kg,ip BID for 7 days by Hematoxylin and eosin staining based microscopy. It counts as functional, organism-based. Conditions: time 7.0 day.
Series [15] relates to Mus musculus. Put plainly: Anti-inflammatory bowel disease activity in DSS-induced inflammatory bowel disease C57BL/6 mouse model assessed as increase in colon length at 5 mg/kg,ip BID for 7 days by vernier calipers analysis. It counts as functional, organism-based. Conditions: time 7.0 day.
The subject of series [16] is RAW264.7. Put plainly: Anti-inflammatory activity in mouse RAW264.7 cells assessed as reduction in LPS-induced NO release at 5 to 10 uM incubated for 24 hrs by Griess method. It counts as functional, cell-based. Conditions: dose 5-10 µM. For orientation: Griess reagent forms a coloured azo dye with nitrite.
Series [17] has as its target cAMP and cAMP-inhibited cGMP 3',5'-cyclic phosphodiesterase 10A (Homo sapiens, UniProt Q9Y233). Put plainly: Inhibition of PDE10A (449 to 770 residues) (unknown origin) using 3H-cAMP as substrate incubated for 15 mins by liquid scintillation counter analysis.
Series [18] has as its target cGMP-dependent 3',5'-cyclic phosphodiesterase (Homo sapiens, UniProt O00408). The experiment in a line: Inhibition of PDE2A (580 to 919 residues) (unknown origin) using 3H-cGMP as substrate incubated for 15 mins by liquid scintillation counter analysis.
The target in series [19] is 3',5'-cyclic-AMP phosphodiesterase 4D (Homo sapiens, UniProt Q08499). The experiment in a line: Inhibition of PDE4D (86 to 413 residues) (unknown origin) using 3H-cAMP as substrate incubated for 15 mins by liquid scintillation counter analysis.
3',5'-cyclic-AMP phosphodiesterase 4D, sequence (Q08499 whole entry, the tested form may be a part): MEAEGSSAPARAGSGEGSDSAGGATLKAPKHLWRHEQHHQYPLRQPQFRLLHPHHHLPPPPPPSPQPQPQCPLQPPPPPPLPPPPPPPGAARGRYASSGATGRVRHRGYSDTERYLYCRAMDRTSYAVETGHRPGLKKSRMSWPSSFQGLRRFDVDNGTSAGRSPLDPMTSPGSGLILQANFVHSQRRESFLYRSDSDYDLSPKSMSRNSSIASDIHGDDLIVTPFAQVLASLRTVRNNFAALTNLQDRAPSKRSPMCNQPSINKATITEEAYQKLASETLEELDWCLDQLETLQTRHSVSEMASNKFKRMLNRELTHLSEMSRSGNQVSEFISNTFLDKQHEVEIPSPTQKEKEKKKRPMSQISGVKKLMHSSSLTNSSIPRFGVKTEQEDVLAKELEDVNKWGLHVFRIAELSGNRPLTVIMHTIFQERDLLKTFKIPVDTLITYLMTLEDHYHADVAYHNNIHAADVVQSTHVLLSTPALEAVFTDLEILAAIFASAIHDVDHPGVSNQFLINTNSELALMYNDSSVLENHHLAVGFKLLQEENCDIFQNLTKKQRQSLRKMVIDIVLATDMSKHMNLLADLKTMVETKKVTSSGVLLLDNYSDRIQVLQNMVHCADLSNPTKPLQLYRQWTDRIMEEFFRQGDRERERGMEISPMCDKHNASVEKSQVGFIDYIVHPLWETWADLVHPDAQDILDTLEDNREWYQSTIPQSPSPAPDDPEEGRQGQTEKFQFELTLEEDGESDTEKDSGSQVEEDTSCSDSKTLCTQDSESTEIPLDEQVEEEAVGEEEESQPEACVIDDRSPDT
The subject of series [20] is RAW264.7. Put plainly: Anti-inflammatory activity in mouse RAW264.7 cells assessed as reduction in LPS-induced iNOS mRNA expression at 5 to 10 uM incubated for 24 hrs by qPCR analysis. The format is functional, cell-based. Conditions: dose 5-10 µM.
Series [21] deals with RAW264.7. The experiment in a line: Anti-inflammatory activity in mouse RAW264.7 cells assessed as reduction in LPS-induced TNF-alpha mRNA expression at 5 to 10 uM incubated for 24 hrs by qPCR analysis. Conditions: dose 5-10 µM. The format is functional, cell-based.
For series [22], the system named is Mus musculus. Put plainly: Anti-inflammatory bowel disease activity in DSS-induced inflammatory bowel disease C57BL/6 mouse model assessed as decrease in fecal occult blood by measuring disease activity index score at 5 mg/kg,ip BID for 7 days. The format is functional, organism-based. Conditions: time 7.0 day.
Series [23] is described as follows: Metabolic stability in rat liver microsomes assessed as half life. In general terms: Microsomes from liver hold many membrane-bound enzymes, among them those of drug oxidation.
In series [24] the target is cGMP-inhibited 3',5'-cyclic phosphodiesterase 3A (Homo sapiens, UniProt Q14432). The experiment in a line: Inhibition of PDE3A (679 to 1087 residues) (unknown origin) using 3H-cAMP as substrate incubated for 15 mins by liquid scintillation counter analysis.
Series [25] relates to RAW264.7. Put plainly: Anti-inflammatory activity in mouse RAW264.7 cells assessed as reduction in LPS-induced IL-1beta mRNA expression at 5 to 10 uM incubated for 24 hrs by qPCR analysis. It counts as functional, cell-based. The settings on record: dose 5-10 µM.
Series [26] deals with Mus musculus. Put plainly: Anti-inflammatory bowel disease activity in DSS-induced inflammatory bowel disease C57BL/6 mouse model assessed as reduction in histological inflammation in colon at 5 mg/kg,ip BID for 7 days by Hematoxylin and eosin staining based microscopy. The settings on record: time 7.0 day. The format is functional, organism-based.
Series [27] has as its target High affinity 3',5'-cyclic-AMP phosphodiesterase 7A (Homo sapiens, UniProt Q13946). Put plainly: Inhibition of PDE7A (130 to 482 residues) (unknown origin) using 3H-cAMP as substrate incubated for 15 mins by liquid scintillation counter analysis.

Active and inactive are the calls of the source. No cut-off for these calls is given here.

High affinity cAMP-specific and IBMX-insensitive 3',5'-cyclic phosphodiesterase 8A, sequence (O60658 whole entry, the tested form may be a part): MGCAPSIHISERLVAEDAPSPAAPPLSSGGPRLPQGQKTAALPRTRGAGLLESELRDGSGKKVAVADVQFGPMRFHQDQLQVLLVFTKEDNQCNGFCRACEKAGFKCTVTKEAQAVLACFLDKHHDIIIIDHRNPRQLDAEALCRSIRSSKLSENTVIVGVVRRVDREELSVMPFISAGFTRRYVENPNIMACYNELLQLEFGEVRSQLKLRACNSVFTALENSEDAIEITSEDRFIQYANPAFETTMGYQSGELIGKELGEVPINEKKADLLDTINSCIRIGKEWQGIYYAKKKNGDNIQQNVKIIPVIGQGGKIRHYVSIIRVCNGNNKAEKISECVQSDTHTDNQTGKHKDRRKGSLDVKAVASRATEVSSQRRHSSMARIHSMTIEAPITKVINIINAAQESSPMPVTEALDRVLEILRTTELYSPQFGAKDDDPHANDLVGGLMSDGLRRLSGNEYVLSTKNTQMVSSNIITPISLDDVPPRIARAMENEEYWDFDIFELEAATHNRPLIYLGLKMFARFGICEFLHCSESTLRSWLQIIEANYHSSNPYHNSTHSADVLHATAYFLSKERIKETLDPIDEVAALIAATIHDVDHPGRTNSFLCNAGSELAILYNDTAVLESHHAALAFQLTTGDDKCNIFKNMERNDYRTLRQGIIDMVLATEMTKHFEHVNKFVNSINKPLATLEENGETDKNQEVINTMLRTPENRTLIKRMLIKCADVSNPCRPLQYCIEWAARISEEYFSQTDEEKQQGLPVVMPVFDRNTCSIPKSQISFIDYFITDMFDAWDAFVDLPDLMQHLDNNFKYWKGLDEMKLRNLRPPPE
cAMP and cAMP-inhibited cGMP 3',5'-cyclic phosphodiesterase 10A, sequence (Q9Y233 whole entry, the tested form may be a part): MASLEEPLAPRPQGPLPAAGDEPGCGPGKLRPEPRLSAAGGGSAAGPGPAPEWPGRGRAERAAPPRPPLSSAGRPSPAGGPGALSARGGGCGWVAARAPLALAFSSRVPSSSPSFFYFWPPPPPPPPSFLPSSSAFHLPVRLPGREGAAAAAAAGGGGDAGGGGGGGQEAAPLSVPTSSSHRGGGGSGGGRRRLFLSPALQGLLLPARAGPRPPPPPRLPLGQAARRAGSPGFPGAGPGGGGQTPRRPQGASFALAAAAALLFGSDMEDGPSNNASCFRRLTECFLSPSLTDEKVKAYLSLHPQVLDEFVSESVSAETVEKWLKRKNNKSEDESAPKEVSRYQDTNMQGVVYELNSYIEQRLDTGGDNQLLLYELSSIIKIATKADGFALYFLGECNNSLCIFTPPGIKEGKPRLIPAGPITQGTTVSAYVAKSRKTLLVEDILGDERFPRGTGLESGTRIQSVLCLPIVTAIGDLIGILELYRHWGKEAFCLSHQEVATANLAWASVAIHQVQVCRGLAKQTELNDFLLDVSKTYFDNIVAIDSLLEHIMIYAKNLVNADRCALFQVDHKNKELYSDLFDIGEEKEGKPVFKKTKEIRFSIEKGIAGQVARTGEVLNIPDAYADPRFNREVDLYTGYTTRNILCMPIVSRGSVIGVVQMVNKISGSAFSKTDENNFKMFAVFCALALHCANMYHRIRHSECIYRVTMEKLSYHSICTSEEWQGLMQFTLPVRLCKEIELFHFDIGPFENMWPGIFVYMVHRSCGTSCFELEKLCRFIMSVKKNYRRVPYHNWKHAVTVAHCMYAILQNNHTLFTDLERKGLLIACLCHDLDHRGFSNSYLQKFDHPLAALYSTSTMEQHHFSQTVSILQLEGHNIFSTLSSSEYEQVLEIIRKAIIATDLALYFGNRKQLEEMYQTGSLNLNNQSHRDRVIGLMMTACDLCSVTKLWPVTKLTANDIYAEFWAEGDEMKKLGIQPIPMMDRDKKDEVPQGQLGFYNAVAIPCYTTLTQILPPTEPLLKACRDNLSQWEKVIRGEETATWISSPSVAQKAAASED
cGMP-dependent 3',5'-cyclic phosphodiesterase, sequence (O00408 whole entry, the tested form may be a part): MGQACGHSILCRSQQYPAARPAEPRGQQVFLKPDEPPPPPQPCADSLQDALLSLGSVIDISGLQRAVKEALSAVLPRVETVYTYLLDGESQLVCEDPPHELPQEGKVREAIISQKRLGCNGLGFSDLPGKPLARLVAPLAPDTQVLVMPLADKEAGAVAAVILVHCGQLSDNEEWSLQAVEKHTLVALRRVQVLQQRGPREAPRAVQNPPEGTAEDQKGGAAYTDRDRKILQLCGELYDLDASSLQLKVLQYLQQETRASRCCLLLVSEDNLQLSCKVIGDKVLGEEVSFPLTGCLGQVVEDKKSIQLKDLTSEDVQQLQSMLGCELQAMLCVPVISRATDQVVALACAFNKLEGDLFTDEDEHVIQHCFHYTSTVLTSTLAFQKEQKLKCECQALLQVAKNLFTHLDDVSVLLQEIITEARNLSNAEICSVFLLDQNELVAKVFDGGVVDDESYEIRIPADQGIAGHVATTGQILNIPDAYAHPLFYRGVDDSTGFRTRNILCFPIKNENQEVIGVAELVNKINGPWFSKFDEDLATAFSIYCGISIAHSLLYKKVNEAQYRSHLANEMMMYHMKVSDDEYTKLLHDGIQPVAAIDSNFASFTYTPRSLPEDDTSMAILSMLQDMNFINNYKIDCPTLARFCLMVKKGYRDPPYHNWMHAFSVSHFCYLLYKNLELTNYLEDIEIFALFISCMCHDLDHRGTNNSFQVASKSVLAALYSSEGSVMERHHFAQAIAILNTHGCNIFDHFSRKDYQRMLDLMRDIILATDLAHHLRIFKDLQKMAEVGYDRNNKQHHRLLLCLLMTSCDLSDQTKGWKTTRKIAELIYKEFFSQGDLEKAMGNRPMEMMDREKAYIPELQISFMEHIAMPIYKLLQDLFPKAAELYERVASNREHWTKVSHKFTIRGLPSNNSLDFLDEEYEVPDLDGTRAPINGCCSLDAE

Turning to `Cc1ccc(-c2c(C#N)c(=O)n(Cc3ccccc3)c3ccc(NC(C)c4ccccn4)cc23)cc1` (configuration not stated), the IC50 in series [1] was 24 nM.

For `Cc1ccc(-c2c(C#N)c(=O)[nH]c3ccccc23)cc1`, the IC50 in [1] is 450 nM; in [2], 8.9 nM.

On to `Cc1ccc(-c2c(C#N)c(=O)n(Cc3ccccc3)c3ccccc23)cc1`, for which the values for the IC50 in series [1] and in series [2] were 48 nM and 5830 nM, respectively.

In the case of `OCCN(CCO)c1nc(N2CCCCC2)c2nc(N(CCO)CCO)nc(N3CCCCC3)c2n1` [DIPYRIDAMOLE], the outcome in series [3], in [4], in [5] and in series [6] was Active. Further, the Activity result in series [7] is listed as “Toxic”.

As to `Cc1ccc(-c2c(C#N)c(=O)n(Cc3ccccc3)c3c(NC(C)c4ccccn4)cccc23)cc1` (configuration not stated), the IC50 in [1] is > 1000 nM.

As to `C[C@H](Nc1ccc2c(C3CCCC3)c(C#N)c(=O)n(CC3CCCC3)c2c1)c1ccccn1`, the IC50 in series [1] worked out at 16 nM.

`C[C@@H](Nc1ccc2c(C3CCCC3)c(C#N)c(=O)n(CC3CCCC3)c2c1)c1ccccn1`: in series [1], the IC50 is 38 nM.

For `CC(C)c1c(C#N)c(=O)n(Cc2ccccc2)c2cc(NC(C)c3ccccn3)ccc12` (configuration not stated), the IC50 in series [1] was determined as 22 nM.

In the case of `CCCCCn1c(=O)c(C#N)c(-c2ccc(C)cc2)c2ccc(NC(C)c3ccccn3)cc21` (configuration not stated), in series [1], the IC50 was > 1000 nM.

`CC(Nc1ccc2c(C3CCCC3)c(C#N)c(=O)n(Cc3ccccc3)c2c1)c1ccccn1` (configuration not stated): the IC50 in series [1] amounted to 20 nM.

As for `CC(Nc1ccc2c(C3CC3)c(C#N)c(=O)n(Cc3ccccc3)c2c1)c1ccccn1` (configuration not stated), the IC50 in [1] turned out to be 218 nM.

As for `Cc1ccc(-c2c(C#N)c(=O)n(Cc3ccccc3)c3cc(NC(C)c4ccccc4)ccc23)cc1` (configuration not stated), the IC50 in series [1] amounted to 55 nM.

Turning to `Cc1ccc(-c2c(C#N)c(=O)n(Cc3ccccc3)c3cc(NC(C)c4ccccn4)ccc23)cc1` (configuration not stated), in series [1], the IC50 came out at 15 nM.

Turning to `Cc1ccc(-c2c(C#N)c(=O)n(Cc3ccncc3)c3cc(NC(C)c4ccccn4)ccc23)cc1` (configuration not stated), the IC50 in series [1] was > 1000 nM.

For `CC(Nc1ccc2c(C(C)(C)C)c(C#N)c(=O)n(Cc3ccccc3)c2c1)c1ccccn1` (configuration not stated), the IC50 in [1] stood at 83 nM.

With `N#Cc1c(C2CCCC2)c2ccc(NCC3CCOCC3)cc2n(CC2CCCC2)c1=O`, the IC50 in [1] was > 1000 nM.

On to `CC(Nc1ccc2c(C3CCCC3)c(C#N)c(=O)n(CC3CCCC3)c2c1)c1ccccn1` (configuration not stated), for which the concentration for half-maximal inhibition (IC50) in series [1] was determined as 19 nM.

Consider `CCCCNc1ccc2c(-c3ccc(C)cc3)c(C#N)c(=O)n(Cc3ccccc3)c2c1`, for which the IC50 in [1] is > 1000 nM.

On to `Cc1ccc(-c2c(C#N)c(=O)n(CC3CCCC3)c3cc(NC(C)c4ccccn4)ccc23)cc1` (configuration not stated), for which the IC50 in series [1] worked out at 25 nM.

Take `N#Cc1c(C2CCCC2)c2ccc(NCc3ccc(F)cn3)cc2n(CC2CCCC2)c1=O`: the Activity result in series [8], in series [9], in series [16], in series [20], in series [21] and in series [25] was “Dose-Dependent Effect” each time. The IC50 in series [10] is 2180 nM; in series [12], > 10000 nM; in series [17], 3030 nM; in [18], > 10000 nM; in series [19] it was 610 nM; in series [1], 15 nM. Also, the figures for the IC50 in series [2], in [24] and in series [27] were > 10000 nM, > 10000 nM and 2300 nM, respectively. Also, the outcome in series [11], in [13], in series [14], in [15], in series [22] and in series [26] was Active. Moreover, the half-life in series [23] was 1.6 min.
